{"source": "patent US9840494B2", "about": "“Quinazoline derivative” (Tianjin Hemay Oncology Pharmaceutical Co., Ltd., priority 2013, dated 2017)", "key": {"EGFR": {"target": "T1, EGFR (Homo sapiens, UniProt P00533)", "T1 construct": "purchased Invitrogen Company PV3872", "assay": "Inhibitory effect on tyrosine kinase activity of EGFR", "format": "biochemical", "conditions": "EGFR 40 ng/ml, ATP 10 μM, 30 min", "description": "EGFR: Invitrogen Company, Catalogue No. PV3872\npGT (poly(glutamic acid-tyrosine)): Sigma-Aldrich Company, Catalogue No. P0275\nThe assay method is briefly described as follows.\n3.1.1 At 4° C., 96-well microtiter plate was coated with 0.2 mg/mL pGT (as the substrate of enzyme) dissolved in PBS (phosphate buffer) overnight. Unbound pGT was washed away with a washing solution (0.05% Tween −20 in PBS), and the plate was dried in the air at room temperature for 2 h.\n3.1.2 The enzyme reaction was performed in 50 μl reaction system containing 50 mM HEPEs (N-(2-hydroxyethyl)piperazine-N′-2-ethanesulfonic acid), pH 7.5, 0.01% BRIJ-35 (polyoxyethylene lauryl ether), 10 mM MgCl2, 1 mM EGTA (ethylene glycol bis(2-aminoethyl ether)tetraacetic acid), with certain concentrations of ATP (adenosine triphosphate) and kinase, and proceeded for 30 min at room temperature. The phosphate group at the terminal of ATP can be transferred to tyrosine residues of pGT by kinase catalysis so as to phosphorylate the tyrosine residues.\n3.1.3 A final concentration of 1% SDS (sodium dodecyl sulfate) was added to terminate the reaction. The phosphorylated tyrosine residues were identified using pY-20. HRP at the end of the antibody enabled TMB to take on color. Then equal amount of 2 N H2SO4 was added to terminate the reaction. OD value, which is positively correlated with the phosphorylation degree of tyrosine residues of pGT, was measured at 450 nm\n3.2 The concentrations of the kinase and substrate ATP were determined with reference to the literature “Optimization of a LanthaScreen Kinase assay for EGFR (ErbB1)”(https://tools.lifetechnologies.com/content/sfs/manuals/EGFR_LanthaScreen_actity_Europium.pdf), published by Invitrogen Corporation. The selection criteria for the final concentrations are that the concentration of kinase enabling the yield of the product within the linear range of the detection system and the concentration of ATP approching Km (Michaelis constant) value.\n3.3.1 An appropriate amount of a compound was dissolved in DMSO (dimethylsulfoxide) to prepare 2 mM stock solution. Then the stock solution was diluted with DMSO to obtain a working solution with a 50-fold concentration of the highest test concentration, and subjected to a 4-fold gradient dilution to obtain seven concentrations in total.\n5 μl 10-fold concentration of ATP dissolved in H2O (the concentration of ATP in EGFR assay is 100 μM, and in Her2 assay is 400 μM) was added to initiate the enzyme reaction followed by reaction at room temperature for 30 min\nThe mean value of inhibition rate and SD (standard deviation) were determined by duplicate wells. A curve with the concentration of the compound as abscissa and being in logarithmic distribution and the mean value of inhibition rate as ordinate was plotted and fitted using four-parameter logistic function."}, "[1]": {"assay": "Bioavailability assay in rats, Experiment II (dihydrobromide)", "format": "in vivo", "conditions": "Wistar rats"}, "[2]": {"test_system": "A431 human epidermal carcinoma xenograft", "assay": "A431 human epidermal carcinoma xenograft model", "format": "in vivo, nude mice", "conditions": "A431 xenograft, 50 mg/kg intragastric once a day for 14 days", "description": "(§1) Tumor cells were cultured in an incubator at 37° C. with 5% CO2 using MEM medium containing 10% inactivated fetal calf serum, 100 U/ml penicillin and 100 µg/ml streptomycin. The tumor cells in logarithmic growth phase were collected, adjusted to an appropriate density and injected subcutaneously into nude mice (0.2 ml per mouse). An xenograft model was established after a tumor was formed in the nude mice and passaged in vivo for more than three generations.\n(§2) The above-mentioned tumor-bearing mice were sacrificed by cervical dislocation. The tumor was taken out and cut into small tumor pieces (about 2 mm×2 mm×2 mm) under sterile conditions. The small tumor pieces were inoculated subcutaneously into nude mice with a trocar. […] The animals in each group were subjected to intragastric administration once a day for 14 consecutive days. The day of grouping is assigned as day 0.\n(§3) Tumor volume is calculated as: volume =0.5×long diameter×short diameter^2. The relative tumor volume (RTV) was calculated based on the measurements as: RTV=Vt/V0, wherein V0 is the tumor volume measured when the animals were grouped to be administrated (i.e., d0), and Vt is the tumor volume when each measurement was taken. Relative tumor proliferation rate T/C was calculated based on relative tumor volume, in which T is the mean value of the relative tumor volume of the treatment group, and C is the mean value of the relative tumor volume of the solvent control group. T/C was calculated as follows: T/C=TRTV/CRTV×100% (TRTV: RTV of the treatment group; CRTV:\nRTV of the solvent control group) Inhibition rate (%)=(mean tumor weight of the solvent control group−mean tumor weight of the treatment group)/mean tumor weight of the solvent control group×100%. Percentage of body weight change=Wn/W0×100% (Wn: mean body weight of experimental animals in each group at day n, W0: mean body weight of experimental animals in each group at day 0).\n(§4) One-Way ANOVA test was conducted in SPSS13.0, performing statistical analysis between groups."}, "[3]": {"test_system": "FaDu human head and neck cancer xenograft", "assay": "FaDu human head and neck cancer xenograft model", "format": "in vivo, nude mice", "conditions": "FaDu xenograft, 50 mg/kg intragastric daily for 14 days", "description": "as §1, with “μg/ml” for “µg/ml”, “after” for “after a”\nas §2, with “nude mice on the right shoulder blade with a” for “nude mice with a”, “intragastric administration daily for 14” for “intragastric administration once a day for 14”\nas §3, with “volume=0.5×long” for “volume =0.5×long”, “CRTV: RTV of the solvent control group) Inhibition rate (%)=(mean tumor weight of the solvent control group−mean tumor weight of the treatment group)/mean tumor weight of the solvent control group×100%. Percentage of body weight change=Wn/W0×100% (Wn: mean body weight of experimental animals in each group at day n, W0: mean body weight of experimental animals in each group at day 0).” for “CRTV:”\nas §4"}, "[4]": {"test_system": "HCC827 human non-small cell lung cancer xenograft", "assay": "HCC827 human non-small cell lung cancer xenograft model", "format": "in vivo, nude mice", "conditions": "HCC827 xenograft, 50 mg/kg intragastric daily for 14 days", "description": "as §1, with “μg/ml” for “µg/ml”\nas §2, with “nude mice on the right shoulder blade with a” for “nude mice with a”, “intragastric administration daily for 14” for “intragastric administration once a day for 14”\nas §3, with “volume=0.5×long” for “volume =0.5×long”, “CRTV: RTV of the solvent control group) Inhibition rate (%)=(mean tumor weight of the solvent control group−mean tumor weight of the treatment group)/mean tumor weight of the solvent control group x 100%. Percentage of body weight change=Wn/W0×100% (Wn: mean body weight of experimental animals in each group at day n, W0: mean body weight of experimental animals in each group at day 0).” for “CRTV:”\nas §4"}, "[5]": {"conditions": "20 mg/kg tail intravenous injection"}, "[6]": {"conditions": "both sexes, rat, plasma, po, 20 mg/kg intragastric gavage"}, "[7]": {"conditions": "both sexes, rat, plasma, 20 mg/kg tail intravenous injection"}}, "note": "pIC50: −log10 of the molar value. Marks after values point to notes of the source that are not given here."}
{"compound": "COCCOc1cc2ncnc(Nc3ccc(F)c(Cl)c3)c2cc1NC(=O)C=C1CCN(CCOC)CC1", "note": "[Compound 8, N-[4-(3-chloro-4-fluorophenylamino)-7-(2-methoxyethoxy)quinazolin-6-yl]-2-[1-(2-methoxyethyl)piperidin-4-ylidene]acetamide diphenylsulfonate]", "values": [{"measurement": "pIC50", "setting": "EGFR", "result": 9.10}]}
{"compound": "COCCOc1cc2ncnc(Nc3ccc(F)c(Cl)c3)c2cc1NC(=O)C=C1CCN(CCOC)CC1", "note": "[Compound 6, N-[4-(3-chloro-4-fluorophenylamino)-7-(2-methoxyethoxy)quinazolin-6-yl]-2-[1-(2-methoxyethyl)piperidin-4-ylidene]acetamide dinitrate]", "values": [{"measurement": "pIC50", "setting": "EGFR", "result": 9.22}]}
{"compound": "COCCOc1cc2ncnc(Nc3ccc(F)c(Cl)c3)c2cc1NC(=O)C=C1CCN(CCOC)CC1", "note": "[Compound 9, N-[4-(3-chloro-4-fluorophenylamino)-7-(2-methoxyethoxy)quinazolin-6-yl]-2-[1-(2-methoxyethyl)piperidin-4-ylidene]acetamide difumarate]", "values": [{"measurement": "pIC50", "setting": "EGFR", "result": 9.30}]}
{"compound": "COCCOc1cc2ncnc(Nc3ccc(F)c(Cl)c3)c2cc1NC(=O)C=C1CCN(CCOC)CC1", "note": "[Compound 10, N-[4-(3-chloro-4-fluorophenylamino)-7-(2-methoxyethoxy)quinazolin-6-yl]-2-[1-(2-methoxyethyl)piperidin-4-ylidene]acetamide dimaleate]", "values": [{"measurement": "pIC50", "setting": "EGFR", "result": 9.52}]}
{"compound": "Br.Br.COCCOc1cc2ncnc(Nc3ccc(F)c(Cl)c3)c2cc1NC(=O)C=C1CCN(CCOC)CC1", "note": "[Example 5, N-[4-(3-chloro-4-fluorophenylamino)-7-(2-methoxyethoxy)quinazolin-6-yl]-2-[1-(2-methoxyethyl)piperidin-4-ylidene]acetamide dihydrobromide]", "values": [{"measurement": "CLz/F", "setting": "[1]; 20 mg/kg intragastric gavage", "result": 66.48, "unit": "mL/min/kg"}, {"measurement": "t½z", "setting": "[1]; 20 mg/kg intragastric gavage", "result": 5.564, "unit": "h"}, {"measurement": "CLz", "setting": "[1]; [5]", "result": 25.8, "unit": "mL/min/kg"}, {"measurement": "t½z", "setting": "[1]; [5]", "result": 5.514, "unit": "h"}, {"measurement": "bioavailability", "setting": "[1]; both sexes, rat, plasma, oral, 20 mg/kg ig vs 20 mg/kg iv", "result": 42.8, "unit": "%"}, {"measurement": "AUC(0-inf)", "setting": "[1]; [6]", "result": 5550, "unit": "ng·h/mL"}, {"measurement": "AUC(0-t)", "setting": "[1]; [6]", "result": 5240, "unit": "ng·h/mL"}, {"measurement": "Cmax", "setting": "[1]; [6]", "result": 368, "unit": "ng/mL"}, {"measurement": "Tmax", "setting": "[1]; [6]", "result": 6, "unit": "h"}, {"measurement": "Vd/F", "setting": "[1]; both sexes, rat, plasma, po, 20 mg/kg intragastric gavage, read-out: Vz/F", "result": 30.1, "unit": "L/kg"}, {"measurement": "AUC(0-inf)", "setting": "[1]; [7]", "result": 13000, "unit": "ng·h/mL"}, {"measurement": "AUC(0-t)", "setting": "[1]; [7]", "result": 12700, "unit": "ng·h/mL"}, {"measurement": "Cmax", "setting": "[1]; [7]", "result": 3240, "unit": "ng/mL"}, {"measurement": "Tmax", "setting": "[1]; [7]", "result": 0.083, "unit": "h"}, {"measurement": "Vd", "setting": "[1]; both sexes, rat, plasma, 20 mg/kg tail intravenous injection, read-out: Vz", "result": 12.2, "unit": "L/kg"}]}
{"compound": "COCCOc1cc2ncnc(Nc3ccc(F)c(Cl)c3)c2cc1NC(=O)C=C1CCN(CCOC)CC1", "note": "[Compound 11, N-[4-(3-chloro-4-fluorophenylamino)-7-(2-methoxyethoxy)quinazolin-6yl]-2-[1-(2-methoxyethyl)piperidin-4-ylidene]acetamide di(p-toluenesulfonate)]", "values": [{"measurement": "pIC50", "setting": "EGFR", "result": 9.40}]}
{"compound": "C#Cc1cccc(Nc2ncnc3cc(OCCOC)c(OCCOC)cc23)c1", "note": "[Tarceva, reference compound]", "values": [{"measurement": "Tumor Weight (x ± S.D.)", "setting": "[2]", "result": "0.281 ± 0.252", "unit": "g"}, {"measurement": "Tumor Inhibitor Rate", "setting": "[2]; by tumor weight", "result": 62.0, "unit": "%"}, {"measurement": "T/C", "setting": "[2]; end of the assay", "result": 47.3, "unit": "%"}, {"measurement": "Tumor Volume (x ± S.D.)", "setting": "[2]; end of the assay", "result": "498.9 ± 263.4** mm^3"}, {"measurement": "Tumor Weight (x ± S.D.)", "setting": "[3]", "result": "0.650 ± 0.267", "unit": "g"}, {"measurement": "Tumor Inhibitor Rate", "setting": "[3]; by tumor weight", "result": 40.6, "unit": "%"}, {"measurement": "T/C", "setting": "[3]; end of the assay", "result": 59.9, "unit": "%"}, {"measurement": "Tumor Volume (x ± S.D.)", "setting": "[3]; end of the assay", "result": "709.9 ± 274.9** mm^3"}, {"measurement": "Tumor Weight (x ± S.D.)", "setting": "[4]", "result": "0.067 ± 0.055", "unit": "g"}, {"measurement": "T/C", "setting": "[4]; end of the assay", "result": 5.0, "unit": "%"}, {"measurement": "Tumor Volume (x ± S.D.)", "setting": "[4]; end of the assay", "result": "55.3 ± 46.3*** mm^3"}]}
{"compound": "N-[4-(3-chloro-4-fluorophenylamino)-7-(2-methoxyethoxy)quinazolin-6yl]-2-[piperidin-4-ylidene]acetamide disulfate [Compound 5]", "values": [{"measurement": "pIC50", "setting": "EGFR", "result": 9.52}]}
